From ChEMBL document CHEMBL3425445, “Synthesis, crystal structure and biological evaluation of substituted quinazolinone benzoates as novel antituberculosis agents targeting acetohydroxyacid synthase” (Eur J Med Chem, 2015)
In brackets after ≈: the same amount, converted by molar mass.

How the values were obtained:
Assay type in all cases: functional
[1] = test system: Mycobacterium tuberculosis; assay: Antitubercular activity against isoniazid-resistant Mycobacterium tuberculosis assessed as inhibition of bacterial growth after 4 weeks by two-fold dilution technique; settings: 672 h
[2] = test system: Mycobacterium tuberculosis; assay: Antitubercular activity against rifampin and isoniazid-resistant Mycobacterium tuberculosis assessed as inhibition of bacterial growth after 4 weeks by two-fold dilution technique; settings: 672 h
[3] = test system: Mycobacterium tuberculosis; assay: Antitubercular activity against rifampin, isoniazid and streptomycin-resistant Mycobacterium tuberculosis assessed as inhibition of bacterial growth after 4 weeks by two-fold dilution technique; settings: 672 h
[4] = test system: Mycobacterium tuberculosis; assay: Antitubercular activity against rifampin, isoniazid and ethambutol-resistant Mycobacterium tuberculosis assessed as inhibition of bacterial growth after 4 weeks by two-fold dilution technique; settings: 672 h
[5] = test system: Mycobacterium tuberculosis; assay: Antitubercular activity against rifampin, isoniazid, amikacin and ofloxacin-resistant Mycobacterium tuberculosis assessed as inhibition of bacterial growth after 4 weeks by two-fold dilution technique; settings: 672 h
[6] = test system: Mycobacterium tuberculosis; assay: Antitubercular activity against rifampin, isoniazid, kanamycin and ofloxacin-resistant Mycobacterium tuberculosis assessed as inhibition of bacterial growth after 4 weeks by two-fold dilution technique; settings: 672 h
[7] = test system: Mycobacterium tuberculosis; assay: Antitubercular activity against isoniazid-resistant Mycobacterium tuberculosis infected in human THP-1 cells assessed as inhibition of intracellular activity at 20 mg/L after 4 days; settings: THP-1, 96 h
[8] = test system: Mycobacterium tuberculosis; assay: Antitubercular activity against rifampin and isoniazid-resistant Mycobacterium tuberculosis infected in human THP-1 cells assessed as inhibition of intracellular activity at 20 mg/L after 4 days; settings: THP-1, 96 h
[9] = test system: Mycobacterium tuberculosis; assay: Antitubercular activity against rifampin, isoniazid and streptomycin-resistant Mycobacterium tuberculosis infected in human THP-1 cells assessed as inhibition of intracellular activity at 20 mg/L after 4 days; settings: THP-1, 96 h
[10] = test system: Mycobacterium tuberculosis; assay: Antitubercular activity against rifampin, isoniazid and ethambutol-resistant Mycobacterium tuberculosis infected in human THP-1 cells assessed as inhibition of intracellular activity at 20 mg/L after 4 days; settings: THP-1, 96 h
[11] = test system: Mycobacterium tuberculosis; assay: Antitubercular activity against rifampin, isoniazid, amikacin and ofloxacin-resistant Mycobacterium tuberculosis infected in human THP-1 cells assessed as inhibition of intracellular activity at 20 mg/L after 4 days; settings: THP-1, 96 h
[12] = test system: Mycobacterium tuberculosis; assay: Antitubercular activity against rifampin, isoniazid, kanamycin and ofloxacin-resistant Mycobacterium tuberculosis infected in human THP-1 cells assessed as inhibition of intracellular activity at 20 mg/L after 4 days; settings: THP-1, 96 h
[13] = test system: Mycobacterium tuberculosis; assay: Antitubercular activity against isoniazid-resistant Mycobacterium tuberculosis infected in human THP-1 cells assessed as inhibition of intracellular activity at 10 mg/L after 4 days; settings: THP-1, 96 h
[14] = test system: Mycobacterium tuberculosis; assay: Antitubercular activity against rifampin and isoniazid-resistant Mycobacterium tuberculosis infected in human THP-1 cells assessed as inhibition of intracellular activity at 10 mg/L after 4 days; settings: THP-1, 96 h
[15] = test system: Mycobacterium tuberculosis; assay: Antitubercular activity against rifampin, isoniazid and streptomycin-resistant Mycobacterium tuberculosis infected in human THP-1 cells assessed as inhibition of intracellular activity at 10 mg/L after 4 days; settings: THP-1, 96 h
[16] = test system: Mycobacterium tuberculosis; assay: Antitubercular activity against rifampin, isoniazid and ethambutol-resistant Mycobacterium tuberculosis infected in human THP-1 cells assessed as inhibition of intracellular activity at 10 mg/L after 4 days; settings: THP-1, 96 h
[17] = test system: Mycobacterium tuberculosis; assay: Antitubercular activity against rifampin, isoniazid, amikacin and ofloxacin-resistant Mycobacterium tuberculosis infected in human THP-1 cells assessed as inhibition of intracellular activity at 10 mg/L after 4 days; settings: THP-1, 96 h
[18] = test system: Mycobacterium tuberculosis; assay: Antitubercular activity against rifampin, isoniazid, kanamycin and ofloxacin-resistant Mycobacterium tuberculosis infected in human THP-1 cells assessed as inhibition of intracellular activity at 10 mg/L after 4 days; settings: THP-1, 96 h

Row | Compound | MIC [1] | MIC [2] | MIC [3] | MIC [4] | MIC [5] | MIC [6] | inhibition at 20 µg/mL [7] | inhibition at 20 µg/mL [8] | inhibition at 20 µg/mL [9] | inhibition at 20 µg/mL [10] | inhibition at 20 µg/mL [11] | inhibition at 20 µg/mL [12] | inhibition at 10 µg/mL [13] | inhibition at 10 µg/mL [14] | inhibition at 10 µg/mL [15] | inhibition at 10 µg/mL [16] | inhibition at 10 µg/mL [17] | inhibition at 10 µg/mL [18]
1 | O=C(On1c(-c2ccccc2)nc2ccccc2c1=O)c1cccc([N+](=O)[O-])c1 | 5 µg/mL (≈ 12.9 µM) | 5 µg/mL (≈ 12.9 µM) | 5 µg/mL (≈ 12.9 µM) | 5 µg/mL (≈ 12.9 µM) | 5 µg/mL (≈ 12.9 µM) | 5 µg/mL (≈ 12.9 µM) |  |  |  |  |  |  |  |  |  |  |  | 
2 | NNC(=O)c1ccncc1 [ISONIAZID] | > 8 µg/mL | > 8 µg/mL | > 8 µg/mL | > 8 µg/mL | > 8 µg/mL | > 8 µg/mL |  |  |  |  |  |  |  |  |  |  |  | 
3 | COc1cccc(-c2nc3ccccc3c(=O)n2OC(=O)c2cccc([N+](=O)[O-])c2)c1 | 5 µg/mL (≈ 12 µM) | 5 µg/mL (≈ 12 µM) | 5 µg/mL (≈ 12 µM) | 5 µg/mL (≈ 12 µM) | 5 µg/mL (≈ 12 µM) | 5 µg/mL (≈ 12 µM) |  |  |  |  |  |  |  |  |  |  |  | 
4 | O=C(On1c(-c2cccc(F)c2)nc2ccccc2c1=O)c1cccc(F)c1 | 2.5 µg/mL (≈ 6.61 µM) | 2.5 µg/mL (≈ 6.61 µM) | 2.5 µg/mL (≈ 6.61 µM) | 2.5 µg/mL (≈ 6.61 µM) | 2.5 µg/mL (≈ 6.61 µM) | 2.5 µg/mL (≈ 6.61 µM) | 51.3% | 47.5% | 53.4% | 50.4% | 46.2% | 52.2% | 25.5% | 22.6% | 26.2% | 24.2% | 22.8% | 26%
5 | COC(=O)c1ccccc1S(=O)(=O)NC(=O)Nc1nc(C)cc(C)n1 [SULFOMETURON METHYL] | 10 µg/mL (≈ 27.4 µM) | 10 µg/mL (≈ 27.4 µM) | 10 µg/mL (≈ 27.4 µM) | 10 µg/mL (≈ 27.4 µM) | 10 µg/mL (≈ 27.4 µM) | 10 µg/mL (≈ 27.4 µM) | 35.6% | 34.4% | 36.2% | 35% | 31.8% | 36% | 17.8% | 16.2% | 18.5% | 17% | 15% | 18.8%
6 | CO[C@H]1/C=C/O[C@@]2(C)Oc3c(C)c(O)c4c(O)c(c(/C=N/N5CCN(C)CC5)c(O)c4c3C2=O)NC(=O)/C(C)=C\C=C\[C@H](C)[C@H](O)[C@@H](C)[C@@H](O)[C@@H](C)[C@H](OC(C)=O)[C@@H]1C [RIFAMPIN] | 0.4 µg/mL (≈ 0.486 µM) | > 8 µg/mL | > 8 µg/mL | > 8 µg/mL | > 8 µg/mL | > 8 µg/mL |  |  |  |  |  |  |  |  |  |  |  | 
7 | COc1cccc(-c2nc3ccccc3c(=O)n2OC(=O)c2cccc(C(F)(F)F)c2)c1 | 10 µg/mL (≈ 22.7 µM) | 10 µg/mL (≈ 22.7 µM) | 10 µg/mL (≈ 22.7 µM) | 10 µg/mL (≈ 22.7 µM) | 10 µg/mL (≈ 22.7 µM) | 10 µg/mL (≈ 22.7 µM) |  |  |  |  |  |  |  |  |  |  |  | 
8 | O=C(On1c(-c2ccccc2)nc2ccccc2c1=O)c1cccc(Cl)c1 | 5 µg/mL (≈ 13.3 µM) | 5 µg/mL (≈ 13.3 µM) | 5 µg/mL (≈ 13.3 µM) | 5 µg/mL (≈ 13.3 µM) | 5 µg/mL (≈ 13.3 µM) | 5 µg/mL (≈ 13.3 µM) |  |  |  |  |  |  |  |  |  |  |  | 
